Results: patent US5443986A, “Enzymatic analysis using substrates that yield fluorescent precipitates” (Molecular Probes, Inc., priority 1993, dated 1995)

Tests used:
[1] = Critical concentration (Mc) for precipitation of the enzymatic product; format: physicochemical; conditions: product of hydrolysis by excess alkaline phosphatase, 0.1M TRIS pH 10.3
Procedure: 2D) Critical concentration: Various concentrations of 2-(4'-methoxy-2'-phosphoryloxyphenyl)quinazolinone (3e) were reacted with 50 μL of excess alkaline phosphatase in 200 μL solution of 0.1M TRIS≥pH 10.3 containing 50 mM NaCl, 10 mM MgCl2 and 0.1 mM ZnCl2. The resulting precipitate and fluorescence were measured in a CytoFluor fluorescence plate reader (Millipore) with excitation at 360 nm, emission at 460 nm using sensitivity setting 3.
3). Determination of the critical concentration and pH dependence for the precipitation. The critical concentration (Mc, in units of mmoles) and the pH dependence (pKa) for precipitation are both important parameters for judging the precipitation properties of the enzymatic products obtained from the subject substrates. Below the critical concentration the product will not be detected as a fluorescent precipitate. Obviously these two parameters contribute to the precipitation in a correlated way. As a simple approach, one may define the critical concentration as the concentration necessary for the precipitation at a high pH where all of the phenol group is ionized. Similarly, acidification by lowering the pH results in precipitation at a concentration below the critical concentration that is obtained at high pH to an extent that is related to the pKa of the phenolic group. It is a characteristic of the preferred substrates that only the product precipitate is fluorescent. In this case the precipitate is quantitated by its fluorescence which results in a correlation of the fluorescence with the degree of precipitation.
To obtain the critical concentration for one product the phosphatase substrate (1e) (200 μL) in a 96-well plate is added to 0.1M TRIS, pH 10.3, containing 50 mM NaCl, 10 mM MgCl2 and 0.1 mM ZnCl2 to yield a final concentration of 0.1 to 10 mM. 50 μL of a 1 mg/mL solution of alkaline phosphatase is then added. The fluorescence development is complete after 5 minutes as measured in using a CytoFluor™ 2300 fluorescence plate reader (Millipore, Bedford, Mass.). A concentration showing appreciable fluorescence is determined as the critical concentration.

[2] = biological target: Alkaline phosphatase conjugated goat anti-rabbit antibodies (Bos taurus, UniProt P19111); assay: Western blot immunodetection of subunit II of bovine heart cytochrome c oxidase with a phosphatase substrate; format: biochemical
Procedure: 1.1. Cytochrome c oxidase from the bovine heart mitochondrial inner membrane is highly purified according to the method of Capaldi and Hayashi, FEBS LETT 26, 4229-4238 (1972).
1.2. 50 μl of pure cytochrome c oxidase (20 mg/ml) is dissolved in a dissociation buffer to a final concentration of 1 mg/ml for electrophoresis.
1.3. An 18% acrylamide gel containing 6M urea, 0.1% SDS is used for gel electrophoresis according to a procedure published by Zhang, Lindorfer and Capaldi, BIOCHEMISTRY, 27, 1389-1394 (1988). 15 μg of protein is loaded onto each lane. The subunits of cytochrome c oxidase are separated during electrophoresis (there are 13 different subunits in bovine cytochrome c oxidase).
2.3. Protein samples in both B and C, resolved in SDS-gel electrophoresis, are semi-dry transferred onto a nitrocellulose membrane following a standard electrophoretic elution procedure published by Harlow and Lane, ANTIBODIES, A LABORATORY MANUAL, Cold Spring Harbor Lab (1988).
3.1. The nitrocellulose membrane is incubated with a polyclonal antibody that is specific for Subunit II of Cytochrome C oxidase (final antibody concentration: 20 μg/ml) at room temperature for 12 hours with agitation.
3.2. The membrane is incubated with the enzyme-labeled secondary antibody at room temperature for 1 hour with agitation. Alkaline phosphatase conjugated goat anti-rabbit antibodies are used with 1:3000 dilution in TTBS buffer containing 1% nonfat milk.
3.4. Membrane B is incubated in the phosphatase substrate BCIP/NBT (BioRad), while C is incubated with the fluorogenic, phosphatase substrate 1e.

alkaline phosphatase [3] = biological target: T1, alkaline phosphatase (Bos taurus, UniProt P19111); format: biochemical; set-up: mature GPI-type homodimer; conditions: 0.1M TRIS pH 10.3, 50 mM NaCl, 10 mM MgCl2, 0.1 mM ZnCl2; double-reciprocal plot
Procedure: As compared with other synthetic substrates, the fluorogenic precipitating substrates described in this invention normally have high enzymatic turnover rates and moderate affinities for the enzymes. Turnover rates of the substrates can be determined as in Example 10 and expressed as micromoles of product per minute per milligram protein (k2, in units of μmol·min^-1 ·mg^-1). The affinity of the substrate is determined by its dissociation constant, KM, in millimolar units. The enzymes can bind to and catalyze conversion of the soluble substrates into detectable reaction products that are apparently less soluble and will precipitate in aqueous solutions. The preferred detectable reaction products are fluorescent precipitates. The precipitation, however, and thus fluorescence, depends on the reaction product concentration or the initial substrate concentration used, as well as the ionization state of the product's phenol group. There are two parameters determining the precipitation, i.e. critical concentration (Mc) and pH dependence (pKa). A method for determination of these parameters is given in Example 11. Table 10 gives the relevant parameters for the enzymatic reaction and precipitation of quinazolinone-based alkaline phosphatase substrates.
4). Kinetic assay of some of the substrates. The specific activity (k2, in a unit of micromole per minute per milligram protein) and Michaelis constant (KM, in a unit of millimole) for hydrolysis of the substrates by the enzyme are listed in Table 10. All of the specific enzymatic reactions are made in the following buffers:
For alkaline phosphatase: 0.1M TRIS pH 10.3 containing 50 mM NaCl, 10 mM MgCl2 and 0.1 mM ZnCl2.
Because the kinetic assay involves variable amounts of precipitate with variable light scattering, measurement in the fluorometer as described above cannot be used here. Instead, a fluorescence plate reader with front-face measurement geometry such as the CytoFluor™ 2300 (Millipore, Bedford, Mass.) is preferred for quantitating the precipitate. The following protocol illustrates the kinetic assay.
4.1 ). In a 96-well plate, pipette 200 μL of a phosphatase substrate in the alkaline phosphatase reaction buffer with a final concentration of 2 to 6 mM, then add 50 μL 1 mg/mL alkaline phosphatase. […] Fluorescence of the precipitate is measured in the CytoFluor with appropriate sensitivity and excitation and emission settings as have been determined with the fluorometer. The fluorescence signal versus the amount of the precipitate is then established for each substrate.
4.2). […] Read the fluorescence of the resulting precipitate after 10 minutes reaction time and calculate the precipitate formation rate per minute by use of the determined fluorescence signal versus the amount of the precipitate. […]

alkaline phosphatase [4] = biological target: T1, alkaline phosphatase; assay: Fluorescence and light scattering on hydrolysis of the substrate (FIG. 2B, 2C); format: biochemical; set-up: mature GPI-type homodimer; conditions: 10 μg/mL alkaline phosphatase, 20 seconds
Procedure: 2B) Coexistence of fluorescence and precipitation: 5 mM 2-(4'-methoxy-2'-phosphoryloxyphenyl)quinazolinone (3e), in 0.1M TRIS pH 10.3 containing 50 mM NaCl, 10 mM MgCl2 and 0.1 mM ZnCl2, yields 210 units of fluorescence by action of 10 μg/mL alkaline phosphatase in 20 seconds. The fluorescence can be eliminated by addition of 0.6% Triton X-100 as a result of precipitate dissolution.
2C) Light-scattering increase as a result of precipitation: 2 mM 2-(4'-methoxy-2'-phosphoryloxyphenyl)quinazolinone (3e) scattering increases from 450 units to beyond the detection limit of 1000 units in 20 seconds by action of 10 μg/mL alkaline phosphatase, showing rapid formation of a precipitate. The enzymatic reaction was in 0.1M TRIS pH 10.3 containing 50 mM NaCl, 10 mM MgCl2 and 0.1 mM ZnCl2. The scattering measurement was made in a Perkin-Elmer LS-50 fluorometer with 5 nm slits and a coincident excitation and emission wavelength of 420 nm.

[5] = biological target: β-galactosidase from E. coli (Escherichia coli, UniProt P00722); assay: Detection of enzymatic activity in chromatographic fractions, galactosidase peak; format: biochemical; conditions: 5 μL of 5 mg/mL substrate added to 25 μL fraction, pH 7.0
Procedure: (§1) β-galactosidase from E. coli (MW 540,000, approximately 1 mg) and β-glucuronidase from E. coli (MW 280,000, approximately 1 mg) are dissolved in 25 μL of 0.1M phosphate, pH 7,0 containing 0.11M 2-mercaptoethanol and 1 mM MgCl2 and chromatographed on a 1×35 cm column of BioGel A 1.5M equilibrated with the same buffer. Detection of the protein absorption at 280 nm is used to detect isolated protein fractions. […] To 25 μL aliquots of each fraction, is separately added 5 μL of a 5 mg/mL aqueous solution of 2-(5'-methoxy-2'-galactopyranosyl)phenyl-4-(3H)-quinazolone (3h) or 2-(2-O-β-D-glucopyranosiduronic acid)-4-(3H)-quinazolone (4h).

[6] = biological target: β-glucuronidase from E. coli (Escherichia coli, UniProt P05804); assay: Detection of enzymatic activity in chromatographic fractions, glucuronidase peak; format: biochemical; conditions: 5 μL of 5 mg/mL substrate added to 25 μL fraction, pH 7.0
Procedure: as §1

T1 sequence (P19111 20-506): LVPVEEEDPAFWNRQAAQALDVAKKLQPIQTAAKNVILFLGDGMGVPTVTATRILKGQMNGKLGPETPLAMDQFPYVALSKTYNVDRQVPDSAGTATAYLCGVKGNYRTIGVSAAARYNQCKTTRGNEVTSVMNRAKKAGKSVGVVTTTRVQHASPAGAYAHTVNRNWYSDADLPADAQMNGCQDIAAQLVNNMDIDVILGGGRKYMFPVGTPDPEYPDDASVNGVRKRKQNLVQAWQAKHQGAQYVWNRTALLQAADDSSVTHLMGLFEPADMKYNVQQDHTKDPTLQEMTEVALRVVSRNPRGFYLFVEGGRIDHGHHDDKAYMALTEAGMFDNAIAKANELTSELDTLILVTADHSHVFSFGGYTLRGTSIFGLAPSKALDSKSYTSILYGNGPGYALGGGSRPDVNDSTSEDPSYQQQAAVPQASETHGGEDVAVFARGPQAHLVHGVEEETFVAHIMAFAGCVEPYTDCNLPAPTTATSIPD
Alkaline phosphatase conjugated goat anti-rabbit antibodies, sequence (P19111 20-506 limits assumed): as the sequence (P19111 20-506) above
β-galactosidase from E. coli, sequence (P00722 2-1024): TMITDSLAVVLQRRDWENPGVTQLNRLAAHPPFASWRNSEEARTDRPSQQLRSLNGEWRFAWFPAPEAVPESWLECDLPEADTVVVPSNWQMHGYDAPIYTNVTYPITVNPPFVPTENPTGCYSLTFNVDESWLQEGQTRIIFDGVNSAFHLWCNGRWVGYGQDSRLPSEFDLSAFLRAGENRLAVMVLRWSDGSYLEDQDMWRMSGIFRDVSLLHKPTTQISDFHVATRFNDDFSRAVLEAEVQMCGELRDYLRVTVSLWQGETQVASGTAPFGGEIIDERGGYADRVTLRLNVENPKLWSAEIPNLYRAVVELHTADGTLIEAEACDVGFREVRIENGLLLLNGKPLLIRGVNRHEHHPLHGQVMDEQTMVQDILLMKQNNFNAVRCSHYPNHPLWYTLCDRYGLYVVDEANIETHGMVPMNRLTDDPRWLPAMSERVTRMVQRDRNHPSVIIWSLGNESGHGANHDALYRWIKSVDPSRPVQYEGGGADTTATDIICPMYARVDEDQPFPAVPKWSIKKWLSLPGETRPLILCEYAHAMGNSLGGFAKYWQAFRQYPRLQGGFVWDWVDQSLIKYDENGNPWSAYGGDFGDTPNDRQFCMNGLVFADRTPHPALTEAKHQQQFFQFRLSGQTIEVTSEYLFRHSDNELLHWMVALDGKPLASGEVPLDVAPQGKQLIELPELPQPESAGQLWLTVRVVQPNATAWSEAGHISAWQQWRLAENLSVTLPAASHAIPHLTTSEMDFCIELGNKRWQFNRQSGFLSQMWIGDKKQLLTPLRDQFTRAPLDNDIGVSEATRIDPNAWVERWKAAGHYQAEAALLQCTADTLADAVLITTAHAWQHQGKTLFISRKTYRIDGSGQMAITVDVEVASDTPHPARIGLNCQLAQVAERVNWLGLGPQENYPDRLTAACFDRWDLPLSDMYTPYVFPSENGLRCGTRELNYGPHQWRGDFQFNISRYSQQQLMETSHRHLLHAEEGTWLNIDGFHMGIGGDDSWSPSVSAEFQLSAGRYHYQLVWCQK
β-glucuronidase from E. coli, sequence (P05804 whole entry): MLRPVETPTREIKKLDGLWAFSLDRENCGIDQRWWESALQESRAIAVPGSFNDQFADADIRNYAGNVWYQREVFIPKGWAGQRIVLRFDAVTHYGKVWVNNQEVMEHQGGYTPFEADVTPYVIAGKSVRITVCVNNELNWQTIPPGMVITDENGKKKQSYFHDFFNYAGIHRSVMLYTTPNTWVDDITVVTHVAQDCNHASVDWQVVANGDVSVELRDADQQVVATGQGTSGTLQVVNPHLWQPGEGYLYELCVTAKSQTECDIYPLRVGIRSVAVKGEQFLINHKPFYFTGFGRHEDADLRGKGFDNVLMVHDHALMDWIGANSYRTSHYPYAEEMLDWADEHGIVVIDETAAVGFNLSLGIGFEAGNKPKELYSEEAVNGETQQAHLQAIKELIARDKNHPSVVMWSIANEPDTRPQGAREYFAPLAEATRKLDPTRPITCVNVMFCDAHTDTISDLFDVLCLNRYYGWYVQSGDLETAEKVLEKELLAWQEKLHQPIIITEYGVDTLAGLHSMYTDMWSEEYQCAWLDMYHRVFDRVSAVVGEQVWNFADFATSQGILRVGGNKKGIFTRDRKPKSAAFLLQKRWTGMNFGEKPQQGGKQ

Row | Structure (SMILES) | Mc (critical concentration for precipitation) [1] | k2 (specific activity, turnover rate) (alkaline phosphatase [3]) | further results
1 | O=c1[nH]c(-c2ccccc2OP(=O)(O)O)nc2ccccc12 [1e, 2-phenyl] | 1.5 mM | 188.81 µmol/min/mg | persistence of the stain on the membrane ([2]; membrane kept in a dry Petri dish): still fluorescent after 3 days; incubation time after which the immunoreactive band is visualized ([2]; nitrocellulose membrane): 30 min; staining of other transferred bands ([2]; nitrocellulose membrane): No other transferred bands are stained
2 | COc1cc(OC)c(OP(=O)(O)O)c(-c2nc3ccccc3c(=O)[nH]2)c1 [2-(3',5'-dimethoxyphenyl)] | 0.3 mM | 215.60 µmol/min/mg | 
3 | COc1ccc(OP(=O)(O)O)c(-c2nc3ccccc3c(=O)[nH]2)c1 [2e, 2-(5'-methoxyphenyl)] | 0.8 mM |  | 
4 | COc1ccc(-c2nc3ccccc3c(=O)[nH]2)c(OP(=O)(O)O)c1 [3e, 2-(4'-methoxy-2'-phosphoryloxyphenyl)quinazolinone] | 2.5 mM |  | light scattering after action of alkaline phosphatase (alkaline phosphatase [4]; 2 mM substrate, starts at 450 units, detection limit 1000 units, 420 nm): > 1000 units; fluorescence yielded by action of alkaline phosphatase (alkaline phosphatase [4]; 5 mM substrate, 0.1M TRIS pH 10.3): 210 units
5 | COc1ccc(O[C@@H]2O[C@H](CO)[C@H](O)[C@H](O)[C@H]2O)c(-c2nc3ccccc3c(=O)[nH]2)c1 [3h, 2-(5'-methoxy-2'-galactopyranosyl)phenyl-4-(3H)-quinazolone] |  |  | fluorescent precipitate formation in fractions of the first peak (β-galactosidase) [5]: Visible yellow fluorescent precipitate formation occurs; fluorescent precipitate formation in fractions of the second peak (β-glucuronidase) [6]: No cross reactivity is observed
6 | O=C(O)[C@H]1O[C@@H](Oc2ccccc2-c2nc3ccccc3c(=O)[nH]2)[C@H](O)[C@@H](O)[C@@H]1O [4h, 2-(2-O-β-D-glucopyranosiduronic acid)-4-(3H)-quinazolone] |  |  | fluorescent precipitate formation in fractions of the first peak (β-galactosidase) [5]: No cross reactivity is observed; fluorescent precipitate formation in fractions of the second peak (β-glucuronidase) [6]: visible formation of a green fluorescent precipitate occurs
7 | COc1ccc(OP(=O)(O)O)c(-c2nc3ccc(Cl)cc3c(=O)[nH]2)c1 [5e, 2-(5'-methoxyphenyl)-6-chloro] | 1.2 mM |  | 
8 | O=c1[nH]c(-c2ccccc2OP(=O)(O)O)nc2ccc([N+](=O)[O-])cc12 [6e, 2-phenyl-6-nitro] | 1.2 mM | 150.66 µmol/min/mg | 
9 | O=c1[nH]c(-c2cc(Cl)ccc2OP(=O)(O)O)nc2ccccc12 [9e, 2-(5'-chlorophenyl)] | 0.4 mM |  | 
